One experiment deals with CDK2/Cyclin E complex (Homo sapiens, UniProt P24941). Nature of the experiment: In vitro kinase assay, CDK2/Cyclin E complex. Type of experiment: biochemical. Conditions: recombinant protein (Upstate); read-out: CDK2/cyclinE IC50. As to the method: Inhibitory activity against Aurora A, CDK1/Cyclin B complex, CDK2/Cyclin E complex and CDK3/Cyclin E complex were measured by in vitro kinase assay using recombinant proteins.

The next experiment addresses T1, recombinant human βARK1 (Homo sapiens, UniProt P25098).
T1 construct: made in house; host or cells: Sf-9 insect cells (baculovirus, pBacPAK8)
T1 sequence (P25098 1-689): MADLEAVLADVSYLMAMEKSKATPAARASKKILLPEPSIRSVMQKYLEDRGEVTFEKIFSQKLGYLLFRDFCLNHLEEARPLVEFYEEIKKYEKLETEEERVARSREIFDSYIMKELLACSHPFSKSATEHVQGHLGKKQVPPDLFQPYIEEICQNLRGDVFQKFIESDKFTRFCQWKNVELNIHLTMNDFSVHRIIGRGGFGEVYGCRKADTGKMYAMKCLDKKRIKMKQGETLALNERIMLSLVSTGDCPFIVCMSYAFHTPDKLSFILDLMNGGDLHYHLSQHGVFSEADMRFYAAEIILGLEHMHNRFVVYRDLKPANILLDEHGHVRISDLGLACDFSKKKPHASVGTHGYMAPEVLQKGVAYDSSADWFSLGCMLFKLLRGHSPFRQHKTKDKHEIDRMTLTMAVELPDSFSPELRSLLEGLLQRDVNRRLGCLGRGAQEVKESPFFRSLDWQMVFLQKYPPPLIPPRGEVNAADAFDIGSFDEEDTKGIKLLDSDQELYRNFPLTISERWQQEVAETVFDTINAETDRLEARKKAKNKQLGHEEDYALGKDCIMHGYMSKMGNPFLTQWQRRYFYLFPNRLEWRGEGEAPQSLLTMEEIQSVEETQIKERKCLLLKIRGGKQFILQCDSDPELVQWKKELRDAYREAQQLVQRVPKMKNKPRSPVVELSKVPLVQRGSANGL
Nature of the experiment: Inhibitory activity against βARK1 (33P phosphorylation of synthetic peptide). Type of experiment: biochemical. The note with it: recombinant human βARK1, 60 minutes at room temperature. In short, it runs like this: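 Recombinant human βARK1 from baculovirus-infected Sf-9 cells, purified by SP-Sepharose and heparin chromatography. Biotinylated synthetic peptide phosphorylated with [γ-33P]ATP; substrate solution held 1 mmol/L peptide and 80 μmol/L ATP, enzyme solution 19 to 38 nmol/L βARK1, both in Tris-HCl pH 7.5, 7.5 mmol/L MgCl2; final DMSO 4 vol %.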

This note sets out measurements from patent US7879887B2, “α-amino acid derivatives and medicaments containing the same as an active ingredient” (Nissan Chemical Industries, Ltd., priority 2006, dated 2011).

pIC50: −log10 of the molar value.

With `O=C(CNc1ccc(Cl)c(O)c1)Nc1nc2ccc3[nH]ncc3c2s1` [compound 6], the pIC50 is 7.59 on CDK2/Cyclin E complex and 8.40 at recombinant human βARK1.

On to `CC(=O)Nc1cc(NCC(=O)Nc2nc3ccc4[nH]ncc4c3s2)ccc1Cl` [compound 16], for which the pIC50 on CDK2/Cyclin E complex was 7.43; at recombinant human βARK1 it was 8.08.

As to `CC(C)(Nc1cccc(O)c1)C(=O)Nc1nc2ccc3[nH]ncc3c2s1` [compound 33], the pIC50 on CDK2/Cyclin E complex was 7.48; on recombinant human βARK1, 8.11.

With `CC(C)(Nc1ccc(Cl)cc1)C(=O)Nc1nc2ccc3[nH]ncc3c2s1` [compound 35], the pIC50 at CDK2/Cyclin E complex is 7.35; on recombinant human βARK1, 8.06.

As for `CC(=O)Nc1cc(NC(C)(C)C(=O)Nc2nc3c(C(F)(F)F)cc4[nH]ncc4c3s2)ccc1Cl` [compound 53], the pIC50 on CDK2/Cyclin E complex is 7.29; at recombinant human βARK1 it was 8.70.

For `CNC(=O)c1cc(NC(C)(C)C(=O)Nc2nc3c(C(F)(F)F)cc4[nH]ncc4c3s2)ccc1Cl` [compound 55], the values for the pIC50 on CDK2/Cyclin E complex and at recombinant human βARK1 were 7.36 and 8.20, respectively.

`CCNC(=O)c1cc(NC(C)(C)C(=O)Nc2nc3c(C(F)(F)F)cc4[nH]ncc4c3s2)ccc1F` [compound 58]: the pIC50 is 6.97 at CDK2/Cyclin E complex and 8.19 at recombinant human βARK1.

With `CCNC(=O)c1cc(NC(C)(C)C(=O)Nc2nc3c(C(F)(F)F)cc4[nH]ncc4c3s2)ccc1Cl` [compound 60], the pIC50 on CDK2/Cyclin E complex was 7.43; at recombinant human βARK1 it was 8.35.

Turning to `CC(C)(Nc1ccc(Cl)c(C(=O)NC2CC2)c1)C(=O)Nc1nc2c(C(F)(F)F)cc3[nH]ncc3c2s1` [compound 75], the pIC50 was 6.88 at CDK2/Cyclin E complex and 8.06 at recombinant human βARK1.

`CC(=O)Nc1cc(NC(C)(C)C(=O)Nc2nc3c(C(F)(F)F)cc4[nH]ncc4c3s2)ccc1F` [compound 81]: the pIC50 is 7.03 at CDK2/Cyclin E complex and 8.08 on recombinant human βARK1.

Turning to `CC(C)(Nc1cccc(S(N)(=O)=O)c1)C(=O)Nc1nc2c(C(F)(F)F)cc3[nH]ncc3c2s1` [compound 82], the values for the pIC50 at CDK2/Cyclin E complex and at recombinant human βARK1 were 7.82 and 8.03, respectively.

On to `CC(C)(Nc1ccc(Cl)c(C(=O)NCC(N)=O)c1)C(=O)Nc1nc2c(C(F)(F)F)cc3[nH]ncc3c2s1` [compound 85], for which the figures for the pIC50 at CDK2/Cyclin E complex and at recombinant human βARK1 were 8.62 and 8.00, respectively.

`CC(C)(Nc1ccc(Cl)c(O)c1)C(=O)Nc1nc2c(C(F)(F)F)cc3[nH]ncc3c2s1` [compound 95]: the pIC50 on CDK2/Cyclin E complex is 7.64; at recombinant human βARK1, 8.06.

As for `O=C(Nc1nc2ccc3[nH]ncc3c2s1)C1(Nc2ccc(Cl)cc2)CC1` [compound 117], the pIC50 at CDK2/Cyclin E complex is 7.72; at recombinant human βARK1, 8.41.

For `CCOC(=O)c1cc(NC2(C(=O)Nc3nc4ccc5[nH]ncc5c4s3)CC2)ccc1Cl` [compound 118], the pIC50 on CDK2/Cyclin E complex is 6.94; on recombinant human βARK1 it was 8.06.

As for `CC(=O)Nc1cc(NC2(C(=O)Nc3nc4ccc5[nH]ncc5c4s3)CC2)ccc1F` [compound 120], the pIC50 on CDK2/Cyclin E complex was 7.19; on recombinant human βARK1, 8.43.

With `CCC(=O)Nc1cc(NC2(C(=O)Nc3nc4ccc5[nH]ncc5c4s3)CC2)ccc1F` [compound 121], the pIC50 at CDK2/Cyclin E complex is 6.96; at recombinant human βARK1, 8.34.

Turning to `CNC(=O)c1cc(NC2(C(=O)Nc3nc4ccc5[nH]ncc5c4s3)CC2)ccc1Cl` [compound 126], the pIC50 on CDK2/Cyclin E complex was 7.41; at recombinant human βARK1 it was 8.12.

For the molecule `CC(=O)Nc1cc(NC(C)(C)C(=O)Nc2nc3ccc4[nH]ncc4c3s2)ccc1Cl` [compound 128], the pIC50 was 7.55 at CDK2/Cyclin E complex and 8.55 at recombinant human βARK1.

`CCC(=O)Nc1cc(NC(C)(C)C(=O)Nc2nc3ccc4[nH]ncc4c3s2)ccc1Cl` [compound 129]: the pIC50 at CDK2/Cyclin E complex is 7.07; at recombinant human βARK1, 8.41.

In the case of `O=C(Nc1nc2ccc3[nH]ncc3c2s1)C(CO)Nc1ccc(Cl)cc1` (stereo not shown) [compound 132], the figures for the pIC50 at CDK2/Cyclin E complex and at recombinant human βARK1 were 7.70 and 8.11, respectively.

Turning to `CC(C)(Nc1ccc(Cl)c(C(N)=O)c1)C(=O)Nc1nc2c(C(F)(F)F)cc3[nH]ncc3c2s1` [compound 135], the results for the pIC50 at CDK2/Cyclin E complex and on recombinant human βARK1 were 7.28 and 8.49, respectively.

As to `CC(C)(Nc1ccc(Cl)c(C(=O)NCCCC(=O)O)c1)C(=O)Nc1nc2c(C(F)(F)F)cc3[nH]ncc3c2s1` [compound 144], the results for the pIC50 at CDK2/Cyclin E complex and on recombinant human βARK1 were 6.60 and 8.11, respectively.
